“Also recorded” adds a separate entry of the source.
What was measured:
[1] = tested on: PP2A; test: hFused phosphorylation in vitro, cytosol incubated with or without fostriecin, Western blot; type: biochemical; conditions: fostriecin 500 nM, 4 h, 30° C.
Description: 8×10^5 cells were transfected with hFused-V5 (aa 1-1335) using Qiagen Polyfect transfection reagent according to the manufacturer's instructions. Cytosol of hFused-V5 overexpressing cells was incubated for 4 h in the presence or absence of fostriecin (500 nM) at 30° C. Proteins (200 μg protein per lane) were separated on a 6% SDS-gel, blotted on PVDF-membranes and incubated with anti-V5-antibody (1:3000). Secondary HRP-antimouse-antibody was diluted 1:2000.
Fostriecin is a highly specific inhibitor of PP2A activity.
Cytosol of V5-tagged hFused-overexpressing cells was incubated for 4 h in the absence (line1) and presence (line2) of fostriecin at 30° C. Subsequently proteins were separated on an SDS-Page, blotted and incubated with an anti-V5 antibody.

[2] = tested on: Gli3; test: Localization of overexpressed GFP-tagged Gli3 in HeLa cells; type: cell-based; conditions: GFP-Gli3 plus B-Box overexpressing HeLa cells
Description: 1×10^5 HELA cells per well of a 6-well plate were transfected with Qiagen Polyfect transfection reagent according to the manufacturer's instructions. The ratio of the amount of DNA to the amount of polyfect transfection reagent was 3 μg DNA/10 μl Polyfect. Constructs used for expression in HELA were the following: GFP-GLI3 (aa 18-1549), GLI3-GFP (aa 1-1522), MYC-GLI3 (aa 18-1596), FLAG-GLI3 (aa18-1596), MYC-B-BOX1 (aa 110-167 of the MID1 protein), ALPHA4-V5 (aa 1-339). 24 h after transfection immunofluorescence was performed. GFP-constructs were treated as described in Schweiger et al., 1999. Immunofluorescence with MYC-tagged and FLAG-tagged constructs was done according to Trockenbacher et al., 2001. FLAG-tagged constructs were detected with anti-FLAG-antibody diluted 1:500, the secondary antibody FITC-antimouse was diluted 1:1000. For MYC-tagged constructs anti-MYC-antibody 1:300 and CY3-antirabbit 1:1000 were used. […]
Overexpressed Gli3 is predominantly localized in the nucleus (FIG. 10, top left).

[3] = tested on: proteasome; test: Polyubiquitinated proteins in the MID1 immune complex, COS7 cells; type: cell-based; conditions: MID1-myc, anti-myc precipitate
Description: Immunoprecipitation, western blotting and immunofluorescence. For COS7 cells, we lysed in IP1 buffer 8×10^6 cells transfected with pBudCE4 vector carrying the respective cDNAs. After preclearing the lysate with 50 μl protein A-agarose (slurry), we incubated supernatants with 2 μg anti-V5 overnight at 4° C. and then for 2 h with 75 μl (slurry) protein A-agarose. After three washes in IP1 buffer, we eluted the proteins with 1× Laemmli buffer at 95° C. MID1-V5 expression was optimal 48 h after doxycyclin removal from 293 tet-off cell lines. We then lysed cells in IP1 buffer and carried out immunoprecipitation with 2 μg anti-V5. We boiled proteins in 1×SDS-PAGE buffer, separated them on 10% and 12% SDS gels, blotted on PVDF membranes (Roche) and blocked and incubated with the respective primary antibody according to the manufacturer's instructions. Because several RING-finger proteins interact with target proteins and thereby elicit their ubiquitin-dependent degradation^8-11, we examined interaction of MID1 with polyubiquitinated proteins. We transfected COS7 cells either with MID1 cDNA or, as a control, with cDNA encoding protein kinase C (PKC), each tagged with a C-terminal V5 epitope or an empty vector, respectively. We treated the cells with 25 μM of LLnL, a proteasome inhibitor, 24 h after transfection to enrich for ubiquitinated proteins. […]

[4] = target: T1, α4 (Homo sapiens, UniProt P78318); test: Yeast two-hybrid interaction of MID1 constructs with α4; type: binding
T1 construct: expressed in transfected cells; host or cells: L40 yeast strain
T1 sequence (P78318 1-339): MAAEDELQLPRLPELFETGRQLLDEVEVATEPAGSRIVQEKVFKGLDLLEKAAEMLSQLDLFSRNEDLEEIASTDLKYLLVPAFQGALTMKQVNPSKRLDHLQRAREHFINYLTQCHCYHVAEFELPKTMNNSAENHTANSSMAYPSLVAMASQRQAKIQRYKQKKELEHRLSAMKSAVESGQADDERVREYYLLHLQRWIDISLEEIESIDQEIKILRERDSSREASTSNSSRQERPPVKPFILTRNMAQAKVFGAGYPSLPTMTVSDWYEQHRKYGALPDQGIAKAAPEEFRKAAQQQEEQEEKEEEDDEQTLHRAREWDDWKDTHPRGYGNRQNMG
Description: Yeast two-hybrid screening. For yeast two-hybrid screening, we cloned full-length MID1 cDNA into the pBTM116 vector. We then cotransfected this with a human fetal brain cDNA Matchmaker library in the pGAD10 vector (Clontech) into the L40 yeast strain. We plated the transformants on synthetic medium lacking histidine, leucine and tryptophan (his^− leu^− trp^−) and containing 3-amino-1,2,4, triazole, and incubated the plates at 30° C. for 5 days. We assayed his-positive colonies for β-galactosidase activity with a filter assay^47. We isolated plasmid DNA from β-galactosidase-positive clones and cotransfected this again into L40 yeast with MID1-pBTM116 and controls. We selected plasmids that produced growth on selective plates only in combination with MID1-pBTM116, which were assumed to code for MID1 interactors, and sequenced them.
Activity of β-galactosidase in yeast liquid cultures. We assayed cells for β-galactosidase activity by the o-nitrophenyl-β-D-galactopyranoside (ONPG) method^47.
MID1 is a multidomain protein harboring a RING finger, two B-boxes, a coiled-coil region, a fibronectin type III domain and a B30.2 domain^3—all of which are candidate regions for specific protein-protein interactions. To clarify which domain specifically binds α4, we tested several deletion mutants of MID1 for interaction with α4 in the yeast two-hybrid system. […]

[5] = tested on: tau protein; test: Tau-1 and pan-Tau immunofluorescence in transfected postnatal sympathetic neurons; type: cell-based, rat; conditions: compared to non-transfected neurons = 100%, two days after transfection
Description: Peripheral sympathetic neurons were obtained from postnatal day 1-3 rats. […] Following mechanical dissociation the cell suspension was filtered through a 40 μm nylon mesh and seeded at 6 SCGs per well into uncoated Falcon dishes for preplating purposes. After 4 hours neurons were transferred into glass floor dishes (Willco Wells B.V., gwst 3522, 3.8 cm^2 area/dish) coated with poly-D-lysine/laminin. Neurons were maintained in RPMI medium containing antibiotics, N2 additive (Invitrogen) and 100 ng/ml nerve growth factor (NGF; Sigma) at 37° C. in a humidified atmosphere with 5% CO2.
Neurons were transfected 2 hours after seeding applying the biolistic approach. This method uses a hand held gun to bombard dissociated neurons at high velocity with micron-size gold particles loaded with DNA. The coating of gold particles with DNA was achieved using a modification of the manufacturer's instructions (Bio-Rad Laboratories). For preparation of 35 cartridges 25 mg gold particles (1.6 μm diameter) were suspended in 50 μl of 0.05 M spermidine. After vortexing and sonication for 5 seconds, 50 μg plasmid DNA dissolved in 50 μl TE buffer was added (for co-transfection experiments, 80 μg were used, i.e., 40 μg Plasmid I+40 μg Plasmid 2). The amount of gold particles and DNA corresponds to a microcarrier loading quantity (MLQ) of about 0.7 (mg/cartridge) and to a DNA loading ratio (DLR) of 2 (μg/mg) for single transfection experiments. DNA, spermidine and gold were then mixed for 5 sec in a variable speed vortexer. At low vortexing speed, 50 μl 1 M CaCl2 was added dropwise to the mixture for association of DNA with the gold particles followed by precipitation for 10 min at room temperature. The supernatant was removed and the pellet rinsed with 800 μl of 100% ethanol. Washing was repeated two times with centrifugation steps at 3000 g between each wash. […]
A fully motorized Zeiss Axiovert 100M microscope equipped for inverted fluorescence was used for visualization of fluorescent neurons. […]

C[C@@](O)(/C=C/[C@H]1CC=CC(=O)O1)[C@@H](C[C@@H](O)\C=C/C=C\C=C\CO)OP(=O)(O)O [fostriecin]
Phosphorylated hFused-band on Western blot [1]: clear enrichment of the phosphorylated hFused-band
Ratio between phosphorylated and dephosphorylated hFused-form ([1]; cytosol of V5-tagged hFused-overexpressing cells, control without fostriecin 1.8×): 18 ×
Gli3 localization in presence of B-Box overexpression [2]: reverse the observed effect

CC(=O)N[C@@H](CSC(=O)[C@]1([C@@H](O)C(C)C)NC(=O)[C@H](C)[C@@H]1O)C(=O)O [lactacystin]
High-molecular weight proteins in MID1-myc-containing precipitates [3]: enrichment of high-molecular weight proteins

MID2: protein highly similar in amino acid sequence (83%) to MID1 (PTTAMSSERIACQFCEQDPPRDAVKTCITCEVSYCDRCLRATHPNKKPFTSHRLVEPV; listed as Homo sapiens)
Interaction with α4 [4]: binds α4

inactive mutated form of the B-BOX1: Bbox1 with exchange of alanine 130 to threonine, abolishes association with α4 (ANTMTSAEKVLCQFCDQDPAQDTVKTCVTCEVSYCDECLKATHPNKKPFTGHRLIEPI) [reference compound]
Tau-1 immunoreactivity (dephosphorylated tau) [5]: does not show this effect; also recorded: do not exhibit different fluorescent levels

Source: patent US8202696B2, “Means for use in treating diseases correlated with or caused by non-physiological levels of microtubule-associated PP2Ac” (Max-Planck-Gessellschaft zur Forderung der Wissenschaften …, priority 2002, dated 2012)
